Data taken from article PMC10748408 (Frontiers in Oncology, 2023).

Tested on: TLR4
Assay: TLR4 silencing by vivo-morpholino, western blot of tumors
Format: in vivo, BALB/c mice
Details: tumor-bearing mice, with 25 mg/kg ART, vs SC-MO, p<0.001
Description: Normal and tumor tissues were homogenized in ice-cold radioimmunoprecipitation assay (RIPA) buffer containing a protease inhibitor cocktail. Proteins were resolved by 10% sodium dodecyl sulphate-polyacrylamide gel electrophoresis (SDS-PAGE), transferred onto polyvinylidene difluoride (PVDF) membranes, blocked with 5% fat-free milk and incubated with primary antibodies (1:1000 dilution) overnight at 4°C. Blots were subsequently washed and incubated with respective secondary antibodies, tagged with horseradish peroxidase. Protein expression was detected using enhanced chemiluminescence (ECL) kit ([37]). Blots were analyzed using the Gel Doc XR and band intensity quantified using ImageJ software (NIH, USA).
Murine mammary tumors were allowed to develop in BALB/c mice injected with 10^7 4T1 cells. […] Control groups were set up, where normal mice and mice-bearing tumors received PBS for 7 days. At the end of the experiment, tissues were harvested and processed for subsequent experiments.

How did the TLR4 expression turn out when “TLR4-VMO: vivo morpholino oligomers against TLR4 mRNA; 5' CAGGGAGGCATCATCCTGGCATTTT 3' (all phosphorodiamidate morpholino (PMO); vivo-morpholino from GeneTools, further chemistry not fully specified)” was run?
The TLR4 expression was “significantly diminished”.
